Test results from patent publication US20100267561A1, “HERBICIDAL PYRIDAZINONE DERIVATIVES” (priority 2007, published 2010).

Assays:
Type in all cases: in vivo
[1] = system: pigweed (Amaranthus retroflexus); assay: Test A pre-/postemergence plant response
Procedure, shortened: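 Greenhouse pot test: loam–sand soil; pre- and postemergence sprays applied same day; post plants 2–10 cm, 1–2 leaves. Readout ~10 d, visual % injury vs untreated (0 = none, 100 = complete control).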

[2] = system: Italian ryegrass (Lolium multiflorum); assay: Test C pre-/postemergence plant response
Procedure, shortened: (§1)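 Pre/post spray; solvent blend non-phytotoxic, with surfactant; post stage 1–4 leaves (2–18 cm); controlled environment 15–25 d; visual score 0–100 relative to controls, 100 = complete control.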

[3] = system: annual bluegrass (Poa annua); assay: Test C pre-/postemergence plant response
Procedure, shortened: as §1

[4] = system: blackgrass (Alopecurus myosuroides); assay: Test C pre-/postemergence plant response
Procedure, shortened: as §1

[5] = system: canarygrass (Phalaris minor); assay: Test C pre-/postemergence plant response; conditions: Preemergence
Procedure, shortened: as §1

canola (Brassica rapa) = assay: Test C pre-/postemergence plant response; conditions: scale 0 to 100, 0 no effect, 100 complete control
Procedure, shortened: as §1

[6] = system: downy bromegrass (Bromus tectorum); assay: Test C pre-/postemergence plant response
Procedure, shortened: as §1

[7] = system: green foxtail (Setaria viridis); assay: Test C pre-/postemergence plant response
Procedure, shortened: as §1

[8] = system: pigweed (Amaranthus retroflexus); assay: Test C pre-/postemergence plant response
Procedure, shortened: as §1

[9] = system: spring barley (Hordeum vulgare); assay: Test C pre-/postemergence plant response
Procedure, shortened: as §1

[10] = system: spring wheat (Triticum aestivum); assay: Test C pre-/postemergence plant response
Procedure, shortened: as §1

[11] = system: wild mustard (Sinapis arvensis); assay: Test C pre-/postemergence plant response
Procedure, shortened: as §1

wild oat (Avena fatua) = assay: Test C pre-/postemergence plant response
Procedure, shortened: as §1

[12] = system: windgrass (Apera spica-venti); assay: Test C pre-/postemergence plant response
Procedure, shortened: as §1

[13] = system: winter barley (Hordeum vulgare); assay: Test C pre-/postemergence plant response
Procedure, shortened: as §1

[14] = system: winter wheat (Triticum aestivum); assay: Test C pre-/postemergence plant response
Procedure, shortened: as §1

[15] = Postemergence, 8 g ai/ha, scale 0 to 100, 0 no effect, 100 complete control
[16] = Postemergence, 16 g ai/ha, scale 0 to 100, 0 no effect, 100 complete control
[17] = Postemergence, 31 g ai/ha, scale 0 to 100, 0 no effect, 100 complete control
[18] = Postemergence, 62 g ai/ha, scale 0 to 100, 0 no effect, 100 complete control
[19] = Preemergence, 8 g ai/ha, scale 0 to 100 (0 no effect, 100 complete control)
[20] = Preemergence, 16 g ai/ha, scale 0 to 100 (0 no effect, 100 complete control)
[21] = Preemergence, 31 g ai/ha, scale 0 to 100 (0 no effect, 100 complete control)
[22] = Preemergence, 62 g ai/ha, scale 0 to 100, 0 no effect, 100 complete control

SMILES: CCOC(=O)Oc1cnn(C)c(=O)c1-n1nc(-c2ccc(Cl)cc2)cc1C [Compound 53]
- Plant response rating, Pigweed ([1]; Postemergence, 31 g ai/ha, 0 to 100 scale, 0 no effect, 100 complete control): 0
- Plant response rating, Pigweed ([1]; Postemergence, 125 g ai/ha, 0 to 100 scale, 0 no effect, 100 complete control): 0
- Plant response rating, Pigweed ([1]; Preemergence, 31 g ai/ha, 0 to 100 scale, 0 is no effect, 100 is complete control): 0
- Plant response rating, Pigweed ([1]; Preemergence, 125 g ai/ha, 0 to 100 scale (0 no effect, 100 complete control)): 0
- Plant response rating, Ryegrass, Italian [2, 15]: 75
- Plant response rating, Ryegrass, Italian [2, 16]: 100
- Plant response rating, Ryegrass, Italian [2, 17]: 100
- Plant response rating, Ryegrass, Italian [2, 18]: 100
- Plant response rating, Ryegrass, Italian [2, 19]: 25
- Plant response rating, Ryegrass, Italian [2, 20]: 100
- Plant response rating, Ryegrass, Italian [2, 21]: 100
- Plant response rating, Ryegrass, Italian [2, 22]: 100
- Plant response rating, Bluegrass [3, 15]: 0
- Plant response rating, Bluegrass [3, 16]: 0
- Plant response rating, Bluegrass [3, 17]: 0
- Plant response rating, Bluegrass [3, 18]: 35
- Plant response rating, Bluegrass [3, 19]: 0
- Plant response rating, Bluegrass [3, 20]: 20
- Plant response rating, Bluegrass [3, 21]: 40
- Plant response rating, Bluegrass [3, 22]: 65
- Plant response rating, Blackgrass [4, 15]: 65
- Plant response rating, Blackgrass [4, 16]: 100
- Plant response rating, Blackgrass [4, 17]: 100
- Plant response rating, Blackgrass [4, 18]: 100
- Plant response rating, Blackgrass [4, 19]: 70
- Plant response rating, Blackgrass [4, 20]: 75
- Plant response rating, Blackgrass [4, 21]: 98
- Plant response rating, Blackgrass [4, 22]: 98
- Plant response rating, Canarygrass ([5]; 8 g ai/ha, scale 0 to 100 (0 no effect, 100 complete control)): 0
- Plant response rating, Canarygrass ([5]; 16 g ai/ha, scale 0 to 100 (0 no effect, 100 complete control)): 0
- Plant response rating, Canarygrass ([5]; 31 g ai/ha, scale 0 to 100 (0 no effect, 100 complete control)): 95
- Plant response rating, Canarygrass ([5]; 62 g ai/ha, scale 0 to 100, 0 no effect, 100 complete control): 95
- Plant response rating, Canola (canola (Brassica rapa); Postemergence, 8 g ai/ha): 0
- Plant response rating, Canola (canola (Brassica rapa); Postemergence, 16 g ai/ha): 0
- Plant response rating, Canola (canola (Brassica rapa); Postemergence, 31 g ai/ha): 0
- Plant response rating, Canola (canola (Brassica rapa); Postemergence, 62 g ai/ha): 0
- Plant response rating, Canola (canola (Brassica rapa); Preemergence, 62 g ai/ha): 0
- Plant response rating, Bromegrass, Downy [6, 15]: 0
- Plant response rating, Bromegrass, Downy [6, 16]: 20
- Plant response rating, Bromegrass, Downy [6, 17]: 30
- Plant response rating, Bromegrass, Downy [6, 18]: 90
- Plant response rating, Bromegrass, Downy [6, 19]: 10
- Plant response rating, Bromegrass, Downy [6, 20]: 20
- Plant response rating, Bromegrass, Downy [6, 21]: 80
- Plant response rating, Bromegrass, Downy [6, 22]: 85
- Plant response rating, Foxtail, Green [7, 15]: 95
- Plant response rating, Foxtail, Green [7, 16]: 98
- Plant response rating, Foxtail, Green [7, 17]: 100
- Plant response rating, Foxtail, Green [7, 18]: 100
- Plant response rating, Foxtail, Green [7, 19]: 90
- Plant response rating, Foxtail, Green [7, 20]: 90
- Plant response rating, Foxtail, Green [7, 21]: 100
- Plant response rating, Foxtail, Green [7, 22]: 100
- Plant response rating, Pigweed [8, 15]: 0
- Plant response rating, Pigweed [8, 16]: 0
- Plant response rating, Pigweed [8, 17]: 0
- Plant response rating, Pigweed [8, 18]: 0
- Plant response rating, Pigweed [8, 19]: 0
- Plant response rating, Pigweed [8, 20]: 0
- Plant response rating, Pigweed [8, 21]: 0
- Plant response rating, Pigweed [8, 22]: 0
- Plant response rating, Barley, Spring [9, 15]: 0
- Plant response rating, Barley, Spring [9, 16]: 40
- Plant response rating, Barley, Spring [9, 17]: 40
- Plant response rating, Barley, Spring [9, 18]: 100
- Plant response rating, Barley, Spring [9, 19]: 0
- Plant response rating, Barley, Spring [9, 20]: 0
- Plant response rating, Barley, Spring [9, 21]: 40
- Plant response rating, Barley, Spring [9, 22]: 75
- Plant response rating, Wheat, Spring [10, 15]: 5
- Plant response rating, Wheat, Spring [10, 16]: 50
- Plant response rating, Wheat, Spring [10, 17]: 80
- Plant response rating, Wheat, Spring [10, 18]: 98
- Plant response rating, Wheat, Spring [10, 19]: 0
- Plant response rating, Wheat, Spring [10, 20]: 20
- Plant response rating, Wheat, Spring [10, 21]: 85
- Plant response rating, Wheat, Spring [10, 22]: 85
- Plant response rating, Mustard, Wild [11, 15]: 0
- Plant response rating, Mustard, Wild [11, 16]: 0
- Plant response rating, Mustard, Wild [11, 17]: 0
- Plant response rating, Mustard, Wild [11, 18]: 0
- Plant response rating, Mustard, Wild [11, 19]: 0
- Plant response rating, Mustard, Wild [11, 21]: 0
- Plant response rating, Mustard, Wild [11, 22]: 0
- Plant response rating, Oat, Wild (wild oat (Avena fatua); [15]): 25
- Plant response rating, Oat, Wild (wild oat (Avena fatua); [16]): 90
- Plant response rating, Oat, Wild (wild oat (Avena fatua); [17]): 100
- Plant response rating, Oat, Wild (wild oat (Avena fatua); [18]): 100
- Plant response rating, Oat, Wild (wild oat (Avena fatua); [19]): 0
- Plant response rating, Oat, Wild (wild oat (Avena fatua); [20]): 0
- Plant response rating, Oat, Wild (wild oat (Avena fatua); [21]): 75
- Plant response rating, Oat, Wild (wild oat (Avena fatua); [22]): 85
- Plant response rating, Windgrass [12, 15]: 0
- Plant response rating, Windgrass [12, 16]: 0
- Plant response rating, Windgrass [12, 17]: 50
- Plant response rating, Windgrass [12, 18]: 70
- Plant response rating, Windgrass [12, 19]: 0
- Plant response rating, Windgrass [12, 20]: 30
- Plant response rating, Windgrass [12, 21]: 75
- Plant response rating, Windgrass [12, 22]: 90
- Plant response rating, Barley, Winter [13, 15]: 0
- Plant response rating, Barley, Winter [13, 16]: 10
- Plant response rating, Barley, Winter [13, 17]: 40
- Plant response rating, Barley, Winter [13, 18]: 95
- Plant response rating, Barley, Winter [13, 19]: 0
- Plant response rating, Barley, Winter [13, 20]: 15
- Plant response rating, Barley, Winter [13, 21]: 50
- Plant response rating, Barley, Winter [13, 22]: 50
- Plant response rating, Wheat, Winter [14, 15]: 0
- Plant response rating, Wheat, Winter [14, 16]: 10
- Plant response rating, Wheat, Winter [14, 17]: 65
- Plant response rating, Wheat, Winter [14, 18]: 95
- Plant response rating, Wheat, Winter [14, 19]: 0
- Plant response rating, Wheat, Winter [14, 20]: 0
- Plant response rating, Wheat, Winter [14, 21]: 50
- Plant response rating, Wheat, Winter [14, 22]: 70
